The subject of this assay is fumonisin B1 monoclonal antibody secreted from the hybridoma cell line Fm7A11. The format is binding, BALB/c mice.

Molecules are shown by their SMILES.

As to `CCCC[C@@H](C)[C@@H](OC(=O)C[C@@H](CC(=O)O)C(=O)O)[C@H](C[C@@H](C)C[C@H](O)CCCC[C@@H](O)C[C@H](O)[C@H](C)N)OC(=O)C[C@@H](CC(=O)O)C(=O)O` [fumonisin B1], the “sensitivity (IC50, concentration of competitive antigen at 50% suppression ratio)” value is on record as 0.32 ng/mL.

For `CCCC[C@@H](C)[C@@H](OC(=O)C[C@@H](CC(=O)O)C(=O)O)[C@H](C[C@@H](C)CCCCCC[C@@H](O)C[C@H](O)[C@H](C)N)OC(=O)C[C@@H](CC(=O)O)C(=O)O` [fumonisin B2], the “Cross rates of response” value is 4.3%. The same measure, in the same setting: for `CCCC[C@@H](C)[C@@H](OC(=O)C[C@@H](CC(=O)O)C(=O)O)[C@H](C[C@@H](C)C[C@H](O)CCCCCC[C@H](O)[C@H](C)N)OC(=O)C[C@@H](CC(=O)O)C(=O)O` [fumonisin B3] the value was 12.8%.

The values are drawn from US12181473B2 (priority 2017, dated 2024).
